# Reference: BindingDB's records for doi:10.1016/s0960-894x(99)00197-3 (The R. W. Johnson Pharmaceutical Research Institute, 1999)
# Test: Activation of human platelet aggregation (gel-filtered platelets) induced by alpha thrombin
row,SMILES,EC50
1,"N=C(N)NCCC[C@H](NC(=O)[C@H](CC1CCCCC1)NC(=O)c1nnc(NC(=O)C=Cc2ccccc2)[nH]1)C(=O)N[C@@H](Cc1ccccc1)C(N)=O [5-[(E)-(3-Phenyl-acryloyl)amino]-1H-[1,2,4]triazole-3-carboxylic acid {(S)-1-[(S)-1-((S)-1-carbamoyl-2-phenyl-ethylcarbamoyl)-4-guanidino-butylcarbamoyl]-2-cyclohexyl-ethyl}-amide]",21000 nM
2,"NCCCC[C@H](NC(=O)[C@H](CC1CCCCC1)NC(=O)c1nnc(N)[nH]1)C(=O)N[C@@H](Cc1ccccc1)C(N)=O [5-Amino-1H-[1,2,4]triazole-3-carboxylic acid {(S)-1-[(S)-5-amino-1-((S)-1-carbamoyl-2-phenyl-ethylcarbamoyl)-pentylcarbamoyl]-2-cyclohexyl-ethyl}-amide]",3900 nM
3,"N=C(N)NCCC[C@H](NC(=O)[C@H](CC1CCCCC1)NC(=O)c1nnc(N)[nH]1)C(=O)N[C@H](C(N)=O)c1ccccc1 [5-Amino-1H-[1,2,4]triazole-3-carboxylic acid ((S)-1-{(S)-1-[((S)-carbamoyl-phenyl-methyl)-carbamoyl]-4-guanidino-butylcarbamoyl}-2-cyclohexyl-ethyl)-amide]",3100 nM

# Molecules with a lower EC50, results first:
row,EC50,SMILES
1,1000 nM,"N=C(N)NCCC[C@H](NC(=O)[C@H](Cc1ccccc1)NC(=O)c1nnc(N)[nH]1)C(=O)N[C@@H](Cc1ccccc1)C(N)=O [5-Amino-1H-[1,2,4]triazole-3-carboxylic acid {(S)-1-[(S)-1-((S)-1-carbamoyl-2-phenyl-ethylcarbamoyl)-4-guanidino-butylcarbamoyl]-2-phenyl-ethyl}-amide]"
2,1000 nM,"N=C(N)NCCC[C@H](NC(=O)[C@H](CC1CCCCC1)NC(=O)c1nnc(NC(=O)C=Cc2cccc3ccccc23)[nH]1)C(=O)N[C@@H](Cc1ccccc1)C(N)=O [5-((E)-3-Naphthalen-1-yl-acryloylamino)-1H-[1,2,4]triazole-3-carboxylic acid {(S)-1-[(S)-1-((S)-1-carbamoyl-2-phenyl-ethylcarbamoyl)-4-guanidino-butylcarbamoyl]-2-cyclohexyl-ethyl}-amide]"
3,2400 nM,"N=C(N)NCCC[C@H](NC(=O)[C@H](CC1CCCCC1)NC(=O)c1nnc(NC(=O)C=Cc2cccc(Cl)c2)[nH]1)C(=O)N[C@@H](Cc1ccccc1)C(N)=O [5-[(E)-3-(3-Chloro-phenyl)-acryloylamino]-1H-[1,2,4]triazole-3-carboxylic acid {(S)-1-[(S)-1-((S)-1-carbamoyl-2-phenyl-ethylcarbamoyl)-4-guanidino-butylcarbamoyl]-2-cyclohexyl-ethyl}-amide]"
